From patent publication US20200164023A1, “METHODS FOR PREVENTING AND TREATING INTRA-ABDOMINAL CANDIDIASIS” (Cidara Therapeutics, Inc., priority 2017, published 2020)
≈ marks a conversion by molar mass, not a printed value. Numbered stars: 1 amine (or outer) side, 2 acyl side, 3 side chain; on linkers, the order of the positions; unused ones are H or OH. Bridge positions count the residues as written; N and C are the ends. Square brackets hold non-standard residues; d marks the D form. Peptide text beside a SMILES is read from it. * marks the point of attachment. hTyr(3S-OH,4S-OH,3'-OSO3H) = N[C@H](C(=O)O)[C@H](O)[C@@H](O)c1ccc(O)c(OS(=O)(=O)O)c1; pTerphenylCO(4''-OnC5H11) = CCCCCOc1ccc(-c2ccc(-c3ccc(C(=O)*)cc3)cc2)cc1; Orn(4R-OH,5R-OH) = O=C([C@H](C[C@@H](O)[C@@H](O)N[*:3])N[*:1])[*:2]; hTyr(3S-OH,4S-OH) = N[C@H](C(=O)O)[C@H](O)[C@@H](O)c1ccc(O)cc1; Pro(3S-OH,4S-Me) = C[C@H]1CN[C@H](C(=O)O)[C@H]1O; X1 = CCCCCOc1ccc(-c2cc(-c3ccc(C(=O)*)cc3)no2)cc1; Gln(3R-OH) = NC(=O)C[C@@H](O)[C@H](N)C(=O)O; Hyp = O=C(O)[C@@H]1C[C@@H](O)CN1

Experiments:
C. glabrata isolates = experiment: Susceptibility profiles of C. glabrata clinical isolates; format: cell-based
Excerpt: 168 C. glabrata isolates are collected from blood or other sterile sites in our repository. 11 clinical isolates are selected that display various susceptibility profiles against anidulafungin, caspofungin, and micafungin, and/or harbor mutant or wild-type FKS genes (Table 1). Additionally, 29 isolates are picked that are susceptible to all three echinocandins and harbor wild-type FKS genes. These 40 clinical isolates undergo CD101 susceptibility testing according to the CLSI broth microdilution reference methods. Stock solutions are prepared in DMSO. […] MICs are determined visually after 24-h of incubation. C. krusei ATCC 6258 and C. parapsilosis ATCC 22019 are included for quality controls.

[1] = tested on: wildtype strains of C. glabrata; settings: cited from earlier work
C. albicans = experiment: Minimum inhibitory concentration (MIC), IAC study strain; format: cell-based; settings: Candida albicans
Method: As used herein, the term “minimum inhibitory concentration” or “MIC” refers to the concentration of an antifungal agent at which 50% to 100% growth inhibition of a fungus is achieved relative to a positive growth control. The method of establishing MIC will vary depending on the specific compound tested. For example, for echinocandins (e.g., CD101), MIC endpoints are determined after 24 hours incubation and correspond with the lowest drug concentration to produce a prominent decrease in turbidity (e.g., an approximately 50% reduction in growth relative to the drug-free growth control). For additional methods of determining the MIC of antifungal agents, see CLSI—Reference method for broth dilution antifungal susceptibility testing of yeasts; Approved-standard—Third Edition. CLSI document M27-A3. Wayne, Pa.: Clinical and Laboratory Standards Institute, 2008.

[2] = MALDI-MSI drug distribution in infected liver, mouse model of intra-abdominal candidiasis; format: in vivo; settings: single dose 5 mg/kg
Method: (§1) A mouse model of IAC was used for this study. Female six to eight week old CD1 mice (Charles River Laboratories) weighing 18-22 g were infected intraperitoneally (IP) with 1×10^7 CFU of C. albicans SC5314 mixed with sterile stool matrix as previously described. […] Mice were sacrificed just before antifungal treatment (n=1), and at 1, 3, 6, 24, and 48 hours post-dose (three mice per group per time point). Livers and kidneys were explored for abscesses >1 mm in diameter, dissected, placed on a cryohistology tray, and snap-frozen in liquid nitrogen and stored at −80° C. for tissue sectioning for MALDI imaging.
(§2) In a further experiment, a low dose of CD101 at 5 mg/kg was administered and micafungin was given at the same dose. Liver and kidney samples were collected at 6 hours and 24 hours post-dose for both MALDI imaging and absolute drug quantification.
(§3) In another separate experiment that aimed at comparing therapeutic level of single dose CD101 and multiple doses of micafungin, a single dose of CD101 at 20 mg/kg was given at day three post-inoculation, and once daily treatment of micafungin at 5 mg/kg starting from day three post-inoculation and a total of three doses of micafungin was administered. Livers and kidneys were collected at 48 hours and 72 hours post first dose of each drug.
Tissues were sectioned at 12 μm thickness using a Leica CM1850 cryostat (Buffalo Grove, Ill.) and mounted onto stainless steel slides (for MALDI-MSI analysis) or frosted glass microscope slides (for H&E staining). Tissue sections were stored at −80° C. until analysis. Prior to MALDI-MSI analysis, tissue sections were thawed and applied with ionization matrix. For CD101, 2,5-dihydroxybenzoic acid (DHB) (20 mg/ml in 50% methanol) containing 267 fmol/μl CD101-D9 (Cidara Therapeutics, Inc) was applied to the surface using a HTX TM sprayer (Chapel Hill, N.C.) operating with 50 μL/min flow rate, 60° C. nozzle temperature and 5 p.s.i. Twenty-five passes over the tissue were performed. For micafungin, 1,5-diaminonaphthalene (1,5-DAN) matrix (5 mg/ml in 50% acetone) containing 5 nmol/μl ^13C6-micafungin (Alsachim, France) was coated onto tissue surface by the TM-sprayer at flow rate of 60 μl/min, 50° C. nozzle temperature and 5 p.s.i. […]
MALDI-MSI analysis was performed using a MALDI LTQ Orbitrap XL mass spectrometer (Thermo Fisher Scientific, Bremen, Germany) with a resolution of 60,000 at m/z 400, full width at half maximum. […] Standards of CD101 and micafungin were analyzed both direct from the stainless steel target plate and spiked into drug-naïve liver tissue to optimize instrument parameters. Limit of detection (LOD) for MALDI-MSI analysis of micafungin and CD101 was 500 ng/g and 1 μg/g of liver or kidney tissue respectively, calculated as described. […]

C. glabrata BG2 = experiment: MIC against C. glabrata BG2; format: cell-based; settings: Nakaseomyces glabratus; C. glabrata BG2, wild-type FKS genes
[3] = Serum drug levels after single dose in mice; format: in vivo; settings: mouse, single dose 5 mg/kg, read-out: serum drug level
[4] = Laser-capture microdissection and LC/MS-MS drug quantification in liver lesions and surrounding tissue, mouse IAC model; format: in vivo; settings: for concentration at 24 h / concentration at 6 h: female, CD1, mouse, in vivo, 5 mg/kg; for concentration at 6 h: 6 hours post-dose
Method: as §1, §2, §3
Laser-capture microdissection. Necrotic lesion and surrounding tissue areas totaling two to […] were dissected from between three and six serial liver or kidney biopsy tissue sections using a Leica LMD6500 system (Buffalo Grove, Ill.). Lesion areas were identified optically from the brightfield image scan and by comparison to the adjacently-sectioned H&E reference tissue. Pooled dissected lesion tissues were collected into 0.25 ml standard PCR tubes and immediately transferred to the −80° C. freezer for storage.
Prior to analysis, the tubes were thawed at room temperature for 30 minutes. 50 μl of extraction solution (ACN/MeOH (1/1) with 100 ng/ml CD101-D9 and 100 ng/ml ^13C6-micafungin) was added to each tube, which were then sonicated for five min and centrifuged at 10000 RPM for five min at room temperature. 40 μl of supernatant was transferred for LC/MS-MS analysis and diluted with an additional 40 μl of MilliQ water.
Neat 1 mg/ml DMSO stocks for all compounds were serial diluted in 50/50 acetonitrile water to create standard curves and quality control spiking solutions. 3 μl of neat spiking solutions were added to 2 μl of lesion homogenate and extraction was performed by adding 50 μl of extraction solution (ACN/MeOH (1/1) with 100 ng/ml CD101-D9 and 100 ng/ml ^13C6-micafungin). Extracts were vortexed for five minutes and centrifuged at 10000 RPM for five min. A 40 μl of supernatant was transferred for LC/MS-MS analysis and diluted with an additional 40 μl of MilliQ water. Previously optimized LC/MS-MS parameters were used for analysis (see LC/MS-MS section).
LC-MS analysis was performed on a Q Exactive high resolution mass spectrometer (Thermo Fisher Scientific, Waltham, Mass.) coupled to a Thermo Scientific Dionex UltiMate 3000 binary system. Chromatography was performed with a Kinetex C18 column (2.1×50 mm; particle size 1.7 μm, Phenomenex, Torrance, Calif.) using a reverse phase gradient elution, ACN:H2O (60:40) and 10 mM ammonium acetate for mobile phase A and IPA:ACN:MeOH (80:10:10) and 10 mM ammonium acetate for mobile phase B. A flow rate of 300 μl/min was used, with a gradient consisting of 20% B held for 0.5 min, followed by linear increase to 95% in 3.5 min, held for 2.2 min and return to the initial 20% B in 0.3 min. The column was equilibrated for 1.5 min before the next injection, and the temperature of column and sample tray were held at 50 and 4° C., respectively. The column retention time for CD101 and micafungin was 3.32 min and 3.2 min respectively.
Key MS parameters were as follow: the spray voltage, 3.5 kV; capillary temperature, 320° C.; HESI probe temperature, 400° C.; S-lens RF level, 50. […]

[5] = tested on: wildtype strains of C. albicans; settings: cited from earlier work

CC[C@H](C)C[C@H](C)CCCCCCCCC(=O)N[C@H]1C[C@@H](O)[C@@H](NCCN)NC(=O)[C@@H]2[C@@H](O)CCN2C(=O)[C@H]([C@H](O)CCN)NC(=O)[C@H]([C@H](O)[C@@H](O)c2ccc(O)cc2)NC(=O)[C@@H]2C[C@@H](O)CN2C(=O)[C@H]([C@@H](C)O)NC1=O [Caspofungin, caspofungin]
susceptibility profile, value (C. glabrata isolates; Isolate 1, FKS R653I): 0.125
susceptibility profile, value (C. glabrata isolates; Isolate 2, FKS Wild-type): 0.25
susceptibility profile, value (C. glabrata isolates; Isolate 3, FKS F659L): 1
susceptibility profile, value (C. glabrata isolates; Isolate 4, FKS F659S): 1
susceptibility profile, value (C. glabrata isolates; Isolate 5, FKS R636S): 4
susceptibility profile, value (C. glabrata isolates; Isolate 6, FKS F659del): 8
susceptibility profile, value (C. glabrata isolates; Isolate 7, FKS S663P): 8
susceptibility profile, value (C. glabrata isolates; Isolate 8, FKS S663P): 0.5
susceptibility profile, value (C. glabrata isolates; Isolate 9, FKS D632Y): 2
susceptibility profile, value (C. glabrata isolates; Isolate 10, FKS D632Y): 2
susceptibility profile, value (C. glabrata isolates; Isolate 11, FKS F659del): 16

CCCCCOc1ccc(-c2ccc(-c3ccc(C(=O)N[C@H]4C[C@@H](O)[C@@H](O)NC(=O)[C@@H]5[C@@H](O)[C@@H](C)CN5C(=O)[C@H]([C@@H](C)O)NC(=O)[C@H]([C@H](O)[C@@H](O)c5ccc(O)cc5)NC(=O)[C@@H]5C[C@@H](O)CN5C(=O)[C@H]([C@@H](C)O)NC4=O)cc3)cc2)cc1 [Anidulafungin, anidulafungin] ({pTerphenylCO(4''-OnC5H11)}-[Orn(4R-OH,5R-OH)]T[Hyp][hTyr(3S-OH,4S-OH)]T[Pro(3S-OH,4S-Me)]; lactam 1-C)
susceptibility profile, value (C. glabrata isolates; Isolate 1, FKS R653I): 0.015
susceptibility profile, value (C. glabrata isolates; Isolate 2, FKS Wild-type): 0.015
susceptibility profile, value (C. glabrata isolates; Isolate 3, FKS F659L): 0.06
susceptibility profile, value (C. glabrata isolates; Isolate 4, FKS F659S): 0.5
susceptibility profile, value (C. glabrata isolates; Isolate 5, FKS R636S): 0.5
susceptibility profile, value (C. glabrata isolates; Isolate 6, FKS F659del): 2
susceptibility profile, value (C. glabrata isolates; Isolate 7, FKS S663P): 2
susceptibility profile, value (C. glabrata isolates; Isolate 8, FKS S663P): 0.5
susceptibility profile, value (C. glabrata isolates; Isolate 9, FKS D632Y): 0.5
susceptibility profile, value (C. glabrata isolates; Isolate 10, FKS D632Y): 1
susceptibility profile, value (C. glabrata isolates; Isolate 11, FKS F659del): 2

CCCCCOc1ccc(-c2cc(-c3ccc(C(=O)N[C@H]4C[C@@H](O)[C@@H](O)NC(=O)[C@@H]5[C@@H](O)[C@@H](C)CN5C(=O)[C@H]([C@H](O)CC(N)=O)NC(=O)[C@H]([C@H](O)[C@@H](O)c5ccc(O)c(OS(=O)(=O)O)c5)NC(=O)[C@@H]5C[C@@H](O)CN5C(=O)[C@H]([C@@H](C)O)NC4=O)cc3)no2)cc1 [micafungin] (X1-[Orn(4R-OH,5R-OH)]T[Hyp][hTyr(3S-OH,4S-OH,3'-OSO3H)][Gln(3R-OH)][Pro(3S-OH,4S-Me)]; lactam 1-C)
mutant prevention concentration (MPC) [1]: 16 µg/mL
MIC (C. albicans): 0.03 mg/L (≈ 0.0236 µM)
time of peak drug intensity in liver tissues (MALDI-MSI) [2]: 1 h
drug signal in liver at 48 hours (MALDI-MSI) ([2]; no further dosing): no drug signals were detected
drug exposure within necrotic center of lesion (MALDI-MSI) ([2]; 24 hours): no detectable drug exposure
time at which drug signal first detectable in lesions (at lesion edge, MALDI-MSI) ([2]; liver): 6 h
susceptibility profile, value (C. glabrata isolates; Isolate 1, FKS R653I): 0.015
susceptibility profile, value (C. glabrata isolates; Isolate 2, FKS Wild-type): 0.03
susceptibility profile, value (C. glabrata isolates; Isolate 3, FKS F659L): 0.06
susceptibility profile, value (C. glabrata isolates; Isolate 4, FKS F659S): 0.06
susceptibility profile, value (C. glabrata isolates; Isolate 5, FKS R636S): 0.12
susceptibility profile, value (C. glabrata isolates; Isolate 6, FKS F659del): 4
susceptibility profile, value (C. glabrata isolates; Isolate 7, FKS S663P): 8
susceptibility profile, value (C. glabrata isolates; Isolate 8, FKS S663P): 0.5
susceptibility profile, value (C. glabrata isolates; Isolate 9, FKS D632Y): 0.25
susceptibility profile, value (C. glabrata isolates; Isolate 10, FKS D632Y): 0.25
susceptibility profile, value (C. glabrata isolates; Isolate 11, FKS F659del): 4
MIC (C. glabrata BG2): 0.06 mg/L (≈ 0.0472 µM)
concentration at 6 h ([3]; 6 hours): 7 to 10 µg/mL
concentration at 24 h ([3]; 24 hours): ~2 µg/mL
drug level in liver lesions ([4]; 5 mg/kg once daily, 24 hours post third dose (steady-state)): under 5 μg/ml
concentration at 24 h ([4]; 5 mg/kg once daily, 24 hours post second dose, read-out: drug level in liver lesions): 3.5 µg/mL
concentration at 24 h ([4]; 5 mg/kg once daily, 24 hours post third dose (steady-state), read-out: drug level in liver lesions): 4.9 µg/mL
concentration at 24 h ([4]; 5 mg/kg once daily, steady-state after three doses, read-out: drug level in surrounding non-lesion liver tissues): 0.5 µg/mL
concentration at 6 h ([4]; ip, single IP dose 5 mg/kg, read-out: drug concentration in liver lesions): 4.9 µg/mL
concentration at 6 h ([4]; ip, single IP dose 5 mg/kg, read-out: drug concentration in uninvolved surrounding liver tissue): 6.5 µg/mL
concentration at 24 h ([4]; ip, single IP dose 5 mg/kg, 24 hours post-dose, read-out: drug concentration in liver lesions): 3.4 µg/mL
concentration at 24 h ([4]; ip, single IP dose 5 mg/kg, 24 hours post-dose, read-out: drug concentration in uninvolved surrounding liver tissue): 1 µg/mL
mutant prevention concentration (MPC) [5]: 16 µg/mL
